Assay results from patent publication US20260223897A1, “SIAMENOSIDE I SWEETENED BEVERAGES WITH MOGROSIDE BLENDS” (The Coca-Cola Company, priority 2023, published 2026).

Experiments:
[1] = cited from earlier work
panelists [2] = assay: Example 2 paired sensory test: higher licorice flavor; conditions: Table 7; Sample A = 400 ppm Siamenoside I alone vs Sample B (blend, 400 ppm total)
panelists [3] = assay: Example 1 paired taste test: panelists select the more bitter sample; assay type: in vivo
Description: The sample was tested within 24 hours at room temperature.
Taste tests were carried out with 7-9 panelists and run singlet to triplet.

panelists [4] = assay: Example 3 paired sensory test: more bitter sample; assay type: in vivo
Description: Samples were tested within 7 days. […] Each pair of mogroside blends was evaluated by each panelist in triplet.

panelists [5] = assay: Example 2 paired sensory test: higher syrupy mouthfeel; conditions: Table 10; Sample A = 400 ppm Siamenoside I alone vs Sample B (blend, 400 ppm total)
panelists [6] = assay: Example 3 paired sensory test: higher licorice flavor; assay type: in vivo; conditions: Table 14; Sample A = 500 ppm Siamenoside I alone vs Sample B (tri-blend of same row, 500 ppm total)
Description: Samples were tested within 7 days.
Sensory tests were carried out with 8-12 panelists. Each pair of mogroside blends was evaluated by each panelist in triplet.

panelists [7] = assay: Example 2 paired sensory test: more bitter sample; assay type: in vivo; conditions: Table 6

C[C@H](CC[C@@H](O[C@@H]1O[C@H](CO[C@@H]2O[C@H](CO)[C@@H](O)[C@H](O)[C@H]2O)[C@@H](O)[C@H](O)[C@H]1O[C@@H]1O[C@H](CO)[C@@H](O)[C@H](O)[C@H]1O)C(C)(C)O)[C@H]1CC[C@@]2(C)[C@@H]3CC=C4[C@@H](CC[C@H](O[C@@H]5O[C@H](CO)[C@@H](O)[C@H](O)[C@H]5O)C4(C)C)[C@]3(C)[C@H](O)C[C@]12C [Siamenoside I]
taste balance compared with mogroside V ([1]; WO 2018213683 A1): better balance in sweetness, bitterness, sweet linger, astringency, and mouthfeel than mogroside V
sensory properties at high concentrations ([1]; high purity, concentrations required to achieve a sucrose equivalence to 10° Brix): significant off-tastes such as licorice, metallic and bitter tastes, as well as sweetness lingering and bitter lingering
Number of Panelist that chose A as higher licorice flavor (panelists [2]): 20
Number of Panelists that chose A as more bitter (panelists [3]; Table 1, Sample A = 400 ppm siamenoside alone vs Sample B (blend of same row, 400 ppm total mogroside), filtered water): 15
Number of Panelists that chose A as more bitter (panelists [3]; Table 2, Sample A = 400 ppm Siamenoside I alone vs Sample B (blend, 400 ppm total)): 6
Number of Panelists that chose A as more bitter (panelists [3]; Table 3, Sample A = 400 ppm Siamenoside I alone vs Sample B (blend, 400 ppm total)): 10
Number of Panelists that chose A as more bitter (panelists [3]; Table 3, Sample A = 500 ppm Siamenoside I alone vs Sample B (blend, 500 ppm total)): 7
Number of Panelist to choose A as more bitter (panelists [4]; Table 11, Sample A = 500 ppm Siamenoside I alone vs Sample B (tri-blend, 500 ppm total)): 19
Number of Panelist to choose A as more bitter (panelists [4]; Table 13, Sample A = 500 ppm Siamenoside I alone vs Sample B (blend, 500 ppm total)): 16
Number of Panelist to choose A as higher syrupy mouthfeel (panelists [5]): 7
Number of Panelist to choose A as higher licorice flavor (panelists [6]): 23
Number of Panelists that chose A as more bitter (panelists [7]; Sample A = 400 ppm Siamenoside I alone vs Sample B (blend, 400 ppm total)): 17
Number of Panelists that chose A as more bitter (panelists [7]; Sample A = 500 ppm Siamenoside I alone vs Sample B (blend, 500 ppm total), Sample B with 400 ppm of Siamenoside I): 12
Number of Panelists that chose A as more bitter (panelists [7]; Sample A = 500 ppm Siamenoside I alone vs Sample B (blend, 500 ppm total), Sample B with 450 ppm of Siamenoside I): 15
Number of Panelists that chose A as more bitter (panelists [7]; Sample A = 500 ppm Siamenoside I alone vs Sample B (blend, 500 ppm total), Sample B with 487.5 ppm of Siamenoside I): 13
